Test results as given in patent US20200297760A1, “COMPOSITIONS AND METHODS FOR REDUCING IMMUNE RESPONSES AGAINST CHIMERIC ANTIGEN RECEPTORS” (Juno Therapeutics, Inc., priority 2015, published 2020).
No end group written: not given here.

Experiments:
Experiment in all cases: REVEAL Epitope Discovery System in vitro MHC-peptide binding assay
HLA-B*08:01 = HLA-B*08:01 (Homo sapiens, UniProt P01889, A93T/A95T/D138N/E176V/E187T/K202T/Q94N/R180D/S35A/V36M/Y33D/Y91F); conditions: binding normalized to positive control peptide set at 100%, >50 considered good or high affinity binding
Description: (§1) Actual binding affinities for certain HLA class I alleles (A*02:01, A*03:01, A*11:01, and B*08:01) were assessed in vitro for exemplary overlapping 9 amino acid peptide sequences within a portion of the 26 amino acid junction region spanning the CD28 and 4-1BB junction. Specifically, assessment was of a series of overlapping 9-mer peptides derived from the sequence […] (set forth in SEQ ID NO: 7), which contains a portion of the CD28 transmembrane domain and 4-1BB costimulatory domain spanning the junction between the domains (bond joining the two amino acids noted in underline). In addition, a series of overlapping 9-mer peptides of each of a number of different variants of this portion also were assessed, each variant containing a mutation or mutations in this region as described in Example 2.
(§2) The various 9-mer overlapping peptides were synthesized and their purity tested by MALDI-TOF Mass Spectrometry. The synthetic peptides were then incubated with recombinant MHC molecules to assess binding properties using the REVEAL Epitope Discovery System, which is a high-throughput binding assay that measures the degree to which each peptide is able to stabilize a ternary MHC-peptide complex (Prolmmune, Oxford, United Kingdom). Each peptide was separately tested for this ability with respect to each of the HLA class I alleles, normalized to the degree observed for a positive control (known T cell epitope for the relevant allele). The results are reported as a score, in which the binding was normalized to the positive control peptide set at 100%. In this analysis, a score of greater than 50 generally was considered to represent good or high affinity binding.

HLA-A*03:01 = HLA-A*03:01 (Homo sapiens, UniProt P04439); conditions: REVEAL score, binding normalized to positive control peptide set at 100%; greater than 50 considered good or high affinity binding
Description: as §1, §2

HLA-A*02:01 = HLA-A*02:01 (Homo sapiens, UniProt P04439, D140Y/D185E/D98H/E176V/E277Q/G131W/G231S/I119V/I121R/I166T/I218V/L300P/L318F/N151K/N90K/P208A/P217A/Q86G/Q94H/R138H/R169H/T345S); conditions: binding normalized to positive control peptide set at 100%, greater than 50 considered good or high affinity binding
Description: as §1, §2

HLA-A*11:01 = HLA-A*11:01 (Homo sapiens, UniProt P04439, A114D/D185E/E176A/F33Y/L180Q/S129P/T187R); conditions: binding normalized to positive control peptide set at 100%, >50 considered good or high affinity binding
Description: as §1, §2

Row | Sequence | B*08:01 In Vitro Score (HLA-B*08:01) | A*03:01 In Vitro (HLA-A*03:01) | A*02:01 In Vitro Score (HLA-A*02:01) | A*11:01 In Vitro Score (HLA-A*11:01)
1 | FIIFWVQRG | 0.60 | 0.40 | 16.80 | 1.50
2 | FIIFWVSRG | 0.40 | 0.10 | 0.20 | 5.10
3 | FWVHRGRKK | 0.00 | 3.60 | 1.60 | 5.60
4 | FWVKRGAKK | 0.30 | 4.70 | 4.30 | 13.20
5 | FWVKRGHKK | 0.40 | 4.10 | 2.60 | 27.60
6 | FWVKRGRKK | 0.00 | 2.20 | 3.50 | 6.50
7 | FWVKRGSKK | 0.10 | 5.90 | 1.90 | 5.60
8 | FWVLRGRKK | 0.00 | 0.40 | 3.30 | 5.00
9 | FWVQRGAKK | 0.00 | 2.70 | 2.20 | 18.30
10 | FWVQRGNKK | 0.00 | 1.30 | 3.10 | 5.90
11 | FWVQRGRKK | 1.90 | 6.40 | 5.20 | 5.70
12 | FWVQRGSKK | 0.00 | 1.90 | 0.80 | 6.80
13 | FWVSRGRKK | 0.00 | 2.90 | 1.50 | 6.30
14 | IFWVARGRK | 0.00 | 53.70 | 1.00 | 34.90
15 | IFWVHRGRK | 0.10 | 37.80 | 7.10 | 36.60
16 | IFWVKRGAK | 2.20 | 22.00 | 13.80 | 69.70
17 | IFWVKRGLK | 58.30 | 26.90 | 2.40 | 61.10
18 | IFWVKRGRK | 0.40 | 20.50 | 4.50 | 29.30
19 | IFWVKRGSK | 1.20 | 10.40 | 2.40 | 47.90
20 | IFWVLRGRK | 0.00 | 19.50 | 2.90 | 29.30

Row | Sequence | B*08:01 In Vitro Score (HLA-B*08:01) | A*03:01 In Vitro (HLA-A*03:01) | A*02:01 In Vitro Score (HLA-A*02:01) | A*11:01 In Vitro Score (HLA-A*11:01)
21 | IFWVQRGAK | 0.20 | 17.00 | 11.70 | 61.30
22 | IFWVQRGNK | 0.10 | 23.20 | 16.10 | 67.50
23 | IFWVQRGRK | 0.00 | 36.70 | 6.10 | 128.50
24 | IFWVQRGSK | 0.00 | 20.30 | 33.50 | 103.30
25 | IFWVSRGRK | 0.00 | 39.20 | 1.30 | 39.20
26 | IIFWVHRGR | 0.20 | 30.10 | 4.70 | 77.50
27 | IIFWVKRGA | 0.90 | 42.90 | 85.90 | 22.60
28 | IIFWVKRGH | 0.10 | 26.60 | 5.30 | 19.50
29 | IIFWVKRGL | 1.70 | 15.90 | 82.20 | 32.40
30 | IIFWVKRGR | 0.00 | 24.30 | 1.70 | 54.50
31 | IIFWVQRGA | 0.20 | 2.70 | 95.30 | 56.50
32 | IIFWVQRGN | 0.00 | 3.60 | 13.00 | 29.00
33 | IIFWVQRGR | 0.10 | 18.00 | 5.80 | 72.80
34 | IIFWVQRGS | 0.10 | 4.50 | 22.40 | 16.90
35 | IIFWVSRGR | 0.00 | 25.30 | 2.60 | 68.90
36 | VAFIIFWVK | 0.30 | 1.50 | 0.70 | 109.20
37 | VAFIIFWVL | 0.00 | 0.00 | 0.20 | 0.20
38 | VAFIIFWVQ | 0.20 | 0.20 | 5.30 | 3.90
39 | VAFIIFWVR | 0.10 | 0.70 | 1.20 | 34.60
40 | VAFIIFWVS | 0.10 | 0.70 | 70.60 | 25.10
